Measurements as given in BindingDB's records for doi:10.1021/acs.jmedchem.5b00261 (Genentech, 2015).

Test: Inhibition of LRRK2 G2019S mutant-induced neuronal toxicity in human cortical neurons

COc1cc(N2CCOCC2)ccc1Nc1ncc(F)c(Nc2ccccc2NS(C)(=O)=O)n1
EC50: 4 nM
